Common to all, as to format: cell-based, human
In test [1] the test system is p-ERK in NCI-H441 cells (KRAS G12V mutation). Briefly: Cell p-ERK assay (HTRF) in NCI-H441 cells. The following applies: NCI-H441 cells, 3 h compound incubation, HTRF p-ERK T202/Y204, read-out: H441 p-ERK IC50. In a few lines: (§1)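 Phospho-ERK inhibition measured by HTRF after a 3 h compound exposure (0.1% DMSO) in overnight-seeded cells; IC50 derived from dose-response fitting.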
In general terms: In TR-FRET formats the signal depends on donor and acceptor labels being close together.

The test system of another test is NCI-H441 cells. Description: 3D cell proliferation assay (CellTiter Glo-3D), NCI-H441. Conditions: medium with 2% FBS, read-out: H441 AP IC50. The procedure, abridged:
(§2)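 Five-day treatment of NCI-H441 or AsPC-1 cells (800/well, 2% FBS RPMI-1640, 0.1% DMSO) with graded compound concentrations; ATP content by CellTiter-Glo 3D; IC50 fitted.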
In general terms: In ATP-based viability assays light output follows the ATP content of the culture.

Test [2] concerns p-ERK in AsPC-1 cells (KRAS G12D mutation). Briefly: Cell p-ERK assay (HTRF) in AsPC-1 cells. Conditions: AsPC-1 cells, 3 h compound incubation, HTRF p-ERK T202/Y204, read-out: AsPC-1 p-ERK IC50. In a few lines: as §1
Test [3] relates to AsPC-1 cells (KRAS G12D mutation). Description: 3D cell proliferation assay (CellTiter Glo-3D), AsPC-1. Conditions: medium with 2% FBS, read-out: AsPC-1 AP IC50. In a few lines: as §2
[4] abbreviates: Homo sapiens, NCI-H441, 3D cell proliferation (CellTiter Glo-3D).
Where [5] appears, read: Homo sapiens, ASPC1, 3D cell proliferation (CellTiter Glo-3D).
Setting [6] is: 3D cell proliferation (CellTiter Glo-3D).

Our source for the IC50 values is patent US20260234165A1, “MACROCYCLIC COMPOUNDS, PREPARATION METHOD THEREFOR, AND USE THEREOF” (GENFLEET THERAPEUTICS (SHANGHAI) INC., priority 2004, published 2026).

For orientation: IC50 means the concentration needed to halve the response being measured.

Each structure is given as a SMILES string. Like-named read-outs stand apart in the source and are kept apart here.

As to `CCn1c(-c2cc(C3(C(=O)N4CCN(C)CC4)CC3)cnc2[C@H](C)OC)c2c3cc(ccc31)-c1csc(n1)C[C@H](NC(=O)[C@H]1[C@H](C)[C@@H]1C)C(=O)N1CCC[C@H](N1)C(=O)OCC(C)(C)C2` [Compound Z75, (1r,2R,3S)—N-((6^3S,4S,Z)-1^1-ethyl-1^2-(2-((S)-1-methoxyethyl)-5-(1-(4-methylpiperazine-1-carbonyl)cyclopropyl)pyridin-3-yl)-10,10-dimethyl-5,7-dioxo-6^1,6^2,6^3,6^4,6^5,6^6-hexahydro-1^1H-8-oxa-2(4,2)-thiazola-1(5,3)-indola-6(1,3)-pyridazinacycloundecaphane-4-yl)-2,3-dimethylcyclopropane-1-carboxamide], the IC50 was 18.6 nM in test [1] (Homo sapiens, NCI-H441, 3 h); 19.4 nM with NCI-H441 cells (setting [4]); 38.7 nM in test [2] (Homo sapiens, ASPC1, 3 h); 56.5 nM in test [3] (setting [5]).

Regarding `CCn1c(-c2cc([C@H]3CCN4CCOC[C@@H]4C3)cnc2[C@H](C)OC)c2c3cc(ccc31)-c1csc(n1)C[C@H](NC(=O)[C@H]1[C@H](C)[C@@H]1C)C(=O)N1CCC[C@H](N1)C(=O)OCC1(CC1)C2` (single isomer, unassigned) [Compound Z79], the IC50 in test [1] (Homo sapiens, NCI-H441, 3 h) is 9.7 nM; in the test on NCI-H441 cells (setting [4]), 6.59 nM; in test [2] (Homo sapiens, ASPC1, 3 h) it was 24.1 nM; in test [3] (setting [5]), 19.3 nM.

As to `CCn1c(-c2cc(OCCN3CC[S+]([O-])CC3)cnc2[C@H](C)OC)c2c3cc(ccc31)-c1csc(n1)C[C@H](NC(=O)[C@H]1[C@H](C)[C@@H]1C)C(=O)N1CCC[C@H](N1)C(=O)OCC(C)(C)C2` (atropisomer, axis not shown; (Ra)) [Compound Z600], the IC50 in test [1] amounted to 0.51 nM; in the test on NCI-H441 cells (setting [6]), 0.36 nM; in test [2] (Homo sapiens, ASPC1, 3 h), 0.51 nM; in test [3] (setting [5]) it was 0.66 nM.

`CCn1c(-c2cc(N3CCN(C)CC3)cnc2[C@H](C)OC)c2c3cc(ccc31)-c1csc(n1)C[C@H](Nc1nnc3cc(OC)ccn13)C(=O)N1CCC[C@H](N1)C(=O)OCC(C)(C)C2` (atropisomer, axis not shown; (Ra)) [Compound Z777, N-((6^3S,4S,Z)-1^1-ethyl-(Ra)-1^2(2-((S)-1-methoxyethyl)-5-(4-methylpiperazin-1-yl)pyridin-3-yl)-10,10-dimethyl-5,7-dioxo-6^1,6^2,6^3,6^4,6^5,6^6-hexahydro-1^1H-8-oxa-2(4,2)-thiazola-1(5,3)-indola-6(1,3)-pyridazinacycloundecaphane-4-yl)-4-(7-methoxy-[1,2,4]triazolo[4,3-a]pyridin-3-yl)amine]: the IC50 in test [1] is 22.2 nM; in the test with NCI-H441 cells (setting [6]), 18.2 nM; in test [2] it was 61.9 nM; in test [3] (setting [6]), 87.9 nM.

On to `CCn1c(-c2cc(OCC3(N4CCC4)CC3)cnc2[C@H](C)OC)c2c3cc(ccc31)-c1csc(n1)C[C@H](NC(=O)[C@H]1[C@H](C)[C@@H]1C)C(=O)N1CCC[C@H](N1)C(=O)OCC1(CC1)C2` [Compound Z333], for which the IC50 in test [1] (Homo sapiens, NCI-H441, 3 h) is 10.9 nM; in the test with NCI-H441 cells (setting [4]), 18.6 nM; in test [2] (Homo sapiens, ASPC1, 3 h) it was 18.8 nM; in test [3] (setting [5]), 29.2 nM.

Regarding `CCn1c(-c2cc(C#C[C@@H]3CCCN3C)cnc2[C@H](C)OC)c2c3cc(ccc31)-c1csc(n1)C[C@H](NC(=O)[C@H]1[C@H](C)[C@@H]1C)C(=O)N1CCC[C@H](N1)C(=O)OCC(C)(C)C2` (atropisomer, axis not shown; (Ra)) [Compound Z598, (1r,2R,3S)—N-((6^3S,4S,Z)—(Ra)-1^1-ethyl-12-(2-((S)-1-methoxyethyl)-5-(((S)-1-methylpyrrolidin-2-yl)ethynyl)pyridin-3-yl)-10,10-dimethyl-5,7-dioxo-6^1,6^2,6^3,6^4,6^5,6^6-hexahydro-1^1H-8-oxa-2(4,2)-thiazola-1(5,3)-indola-6(1,3)-pyridazinacycloundecaphane-4-yl)-2,3-dimethylcyclopropane-1-carboxamide], the IC50 is 0.58 nM in test [1], 0.65 nM with NCI-H441 cells (setting [6]), 0.8 nM in test [2] and 0.62 nM in test [3] (setting [6]).

In the case of `CCn1c(-c2cc(OCC3(N4CCS(=O)(=O)CC4)CC3)cnc2[C@H](C)OC)c2c3cc(ccc31)-c1csc(n1)C[C@H](NC(=O)[C@H]1[C@H](C)[C@@H]1C)C(=O)N1CCC[C@H](N1)C(=O)OCC(C)(C)C2` [Compound Z449, (1r,2R,3S)—N-((6^3S,4S,Z)-1^2-(5-((1-(1,1-dioxidothiomorpholino)cyclopropyl)methoxy)-2-((S)-1-methoxyethyl)pyridin-3-yl)-1^1-ethyl-10,10-dimethyl-5,7-dioxo-6^1,6^2,6^3,6^4,6^5,6^6-hexahydro-1^1-hydrogen-8-oxa-2(4,2)-thiazola-1(5,3)-indola-6(1,3)-pyridazinacycloundecaphane-4-yl)-2,3-dimethylcyclopropane-1-carboxamide], the half-inhibitory concentration (IC50) in test [1] is 0.33 nM; with NCI-H441 cells (setting [6]), 0.34 nM; in test [2], 0.21 nM; in test [3] (setting [6]), 0.45 nM.

In the case of `C=C1CCN2CCN(c3cnc([C@H](C)OC)c(-c4c5c6cc(ccc6n4CC)-c4csc(n4)C[C@H](NC(=O)[C@H]4[C@H](C)[C@@H]4C)C(=O)N4CCC[C@H](N4)C(=O)OCC(C)(C)C5)c3)C[C@H]2C1` (atropisomer, axis not shown; (Ra)) [Compound Z309, (1r,2R,3S)—N-((6^3S,4S,Z)-1^1-ethyl-(Ra)-1^2-(2-((S)-1-methoxyethyl)-5-((R)-8-methyleneoctahydro-2H-pyrido[1,2-a]pyrazin-2-yl)pyridin-3-yl)-10,10-dimethyl-5,7-dioxo-6^1,6^2,6^3,6^4,6^5,6^6-hexahydro-1^1H-8-oxa-2(4,2)-thiazola-1(5,3)-indola-6(1,3)-pyridazinacycloundecaphane-4-yl)-2,3-dimethylcyclopropane-1-carboxamide], the 50% inhibitory concentration (IC50) came out at 0.96 nM in test [1], 0.62 nM in the test on NCI-H441 cells (setting [4]), 0.38 nM in test [2] and 2.09 nM in test [3] (setting [5]).

Regarding `CCn1c(-c2cc(C#C[C@H]3CCCN3C)cnc2[C@H](C)OC)c2c3cc(ccc31)-c1csc(n1)C[C@H](NC(=O)[C@H]1[C@H](C)[C@@H]1C)C(=O)N1CCC[C@H](N1)C(=O)OCC(C)(C)C2` (atropisomer, axis not shown; (Ra)) [Compound Z599, (1r,2S,3R)—N-((6^3S,4S,Z)—(Ra)-1^2-(5-(((R)-1-methylpyrrolidin-2-yl)ethynyl)-2-((S)-1-methoxyethyl)pyridin-3-yl)-1^1-ethyl-10,10-dimethyl-5,7-dioxo-6^1,6^2,6^3,6^4,6^5,6^6-hexahydro-1^1H-8-oxa-2(4,2)-thiazola-1(5,3)-indola-6(1,3)-pyridazinacycloundecaphane-4-yl)-2,3-dimethylcyclopropane-1-carboxamide], the IC50 in test [1] (Homo sapiens, NCI-H441, 3 h) came to 0.7 nM; with NCI-H441 cells (setting [4]), 1.17 nM; in test [2] (Homo sapiens, ASPC1, 3 h), 1.05 nM; in test [3] (setting [5]) it was 2.15 nM.

With `CCn1c(-c2cc(C#CCN3CCCOCC3)c[n+]([O-])c2[C@H](C)OC)c2c3cc(ccc31)-c1csc(n1)C[C@H](NC(=O)[C@H]1[C@H](C)[C@@H]1C)C(=O)N1CCC[C@H](N1)C(=O)OCC(C)(C)C2` [Compound Z914, 5-(3-(1,4-oxazepan-4-yl)prop-1-yn-1-yl)-3-((6^3S,4S,Z)-4-((r,2R,3S)-2,3-dimethylcyclopropane-1-carboxamido)-1^1-ethyl-10,10-dimethyl-5,7-dioxo-6^1,6^2,6^3,6^4,6^5,6^6-hexahydro-1^1H-8-oxa-2(4,2)-thiazola-1(5,3)-indola-6(1.3)-pyridazinacycloundecaphane-1^2-yl)-2-((S)-1-methoxyethyl)pyridine-1-oxide], the half-inhibitory concentration (IC50) is 0.46 nM in test [1] (Homo sapiens, NCI-H441, 3 h); 0.26 nM with NCI-H441 cells (setting [6]); 0.25 nM in test [2] (Homo sapiens, ASPC1, 3 h); 0.58 nM in test [3] (setting [6]).

Turning to `CCn1c(-c2cc(N3CCN(C)CC3)cnc2[C@H](C)OC)c2c3cc(ccc31)-c1csc(n1)C[C@H](Nc1nnc3cc(C)ccn13)C(=O)N1CCC[C@H](N1)C(=O)OCC(C)(C)C2` (atropisomer, axis not shown; (Ra)) [Compound Z653, (6^3S,4S,Z)-1^1-ethyl-(Ra)-1^2-(2-((S)-1-methoxyethyl)-5-(4-methylpiperazin-1-yl)pyridin-3-yl)-10,10-dimethyl-4-((7-methyl-[1,2,4]triazolo[4,3-a]pyridin-3-yl)amino)-6^1,6^2,6^3,6^4,6^5,6^6-hexahydro-1^1H-8-oxa-2(4,2)-thiazola-1(5,3)-indola-6(1,3)-pyridazinacycloundecaphane-5,7-dione], the concentration for half-maximal inhibition (IC50) in test [1] (Homo sapiens, NCI-H441, 3 h) amounted to 4.55 nM; with NCI-H441 cells (setting [4]), 4.06 nM; in test [2] (Homo sapiens, ASPC1, 3 h), 13.4 nM; in test [3] (setting [5]) it was 21.1 nM.
